One assay concerns the target T1, recombinant SIRT2 (Homo sapiens, UniProt Q8IXJ6).
T1 sequence (Q8IXJ6 1-389): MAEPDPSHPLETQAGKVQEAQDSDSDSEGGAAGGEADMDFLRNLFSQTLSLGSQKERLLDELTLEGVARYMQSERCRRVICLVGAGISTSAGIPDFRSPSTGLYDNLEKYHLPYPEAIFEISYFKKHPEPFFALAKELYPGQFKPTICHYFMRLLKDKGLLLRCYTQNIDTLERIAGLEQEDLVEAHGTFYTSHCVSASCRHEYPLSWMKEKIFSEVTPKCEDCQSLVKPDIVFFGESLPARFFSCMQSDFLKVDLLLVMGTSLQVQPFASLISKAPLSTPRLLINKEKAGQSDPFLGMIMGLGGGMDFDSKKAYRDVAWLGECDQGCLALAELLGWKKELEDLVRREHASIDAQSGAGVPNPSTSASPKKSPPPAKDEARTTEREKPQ
The experiment in a line: SIRT2 deacetylase activity, recombinant SIRT2 incubated with acetylated peptide H3K9Ac and NAD+. In kind it is biochemical. Conditions: recombinant protein. The protocol: The effect of the in silico screened compounds on the SIRT2 deacetylase activity was evaluated thanks to the incubation of recombinant SIRT2 with an acetylated peptide (H3K9Ac, a peptide acetylated on Lys 9) and NAD^+.

The test system of assay [1] is SIRT2 activity (acetylation status of α-tubulin). The experiment in a line: α-tubulin acetylation in cultured CFBE41o- cells (immunoblotting). It counts as cell-based, human. Conditions: 10 μM. How it is done:
Finally, experiments were performed to determine whether compound 1a was active in intact cells. The acetylation status of α-tubulin, a known target of SIRT2 deacetylase activity, was used to monitor SIRT2 activity in human cells.
The cells were incubated with 10 μM of compound 1a or the respective amount of vehicle DMSO, and were used for protein lysate generation; then, the total and acetylated α-tubulin levels were detected by Immunoblotting. The levels of acetylated α-tubulin were quantified, normalized to the total α-tubulin, and expressed as percentage increase vs. vehicle-treated cells. One representative Western blot analysis and the mean ± SD of 3 quantifications are shown. **, p < 0.01.
The bronchial epithelial CFBE41o- cells were cultured as in [20]. […] The proteins were subsequently transferred to nitrocellulose membranes and the expression of the total or acetylated α-tubulin was detected using the following primary antibodies: anti-α-tubulin (rabbit polyclonal, #2125, Cell Signalling Technology, Danvers, MA, USA) and anti-acetylated α-tubulin (rabbit polyclonal, #5335, Cell Signalling Technology). Following incubation with the appropriate secondary antibodies and Amersham ECL detection (Cytiva, Milano, Italy), the band intensity was quantified using the ChemiDoc imaging system (Bio-Rad, Milan, Italy). α-tubulin acetylation was normalized to the total α-tubulin levels.
(A western blot detects proteins with antibodies after separation by electrophoresis.)

Another assay addresses T2, recombinant human HSP70 (Homo sapiens, UniProt P0DMV8).
T2 construct: made in house; host or cells: E. coli BL21 (DE3)
The experiment in a line: HSP70 ATPase catalytic activity, Malachite green assay. In kind it is biochemical. The conditions noted are these: 300 μM final concentration; read-out: percentage of inhibition of HSP70 ATPase activity. The protocol: The impact of selected molecules on the ATPase catalytic activity of an in-house produced recombinant human HSP70 protein was determined using the Malachite green assay, incubating the recombinant protein with ATP in the presence or absence of different compounds (300 μM final concentration). The percentage of inhibition exerted by the selected compounds on the ATPase activity was as follow: 1a, 49 ± 2%; 2a, 40 ± 1%; 3a, 44 ± 4%; 4a, 20 ± 1%; 5a, 19 ± 1%; 6a, 37 ± 1%; 7a, 47 ± 1%.
The recombinant human Hsp70 protein was produced in BL21 (DE3) E. coli transformed with the pET-6xHis/hHSP70 plasmid containing the coding sequence for human HSP70 (hHSPA1A gene, NM_005345.6; purchased from Vector Builder, Vector ID VB210930). This vector allowed for producing an N-terminal 6xHis tag fusion HSP70 protein.
BL21 cells containing the vector were initially grown in Luria−Bertani medium at 37 °C (Merck, Milan, Italy) with 200 μg/mL ampicillin until the culture reached an OD600 of 0.5. The 6xHis/hHSP70 fusion protein was expressed by adding isopropyl-β-d-thiogalactopyranoside (final concentration of 0.2 mM) and incubating the bacteria culture at 37 °C for 2 h. The cells were harvested by centrifugation and then lysed by sonication in 20 mM Tris-HCl, 250 mM KCl, and 10 mM MgCl2 pH 7.4; after the addition of Triton X-100 to a final concentration of 1% and incubation for 30 min at 4 °C, the lysates were centrifugated at 10,000× g for 15 min. The HSP70 protein was purified by affinity chromatography using His GraviTrap TALON columns (Euroclone, Milan, Italy). Briefly, after loading the lysate, the resin was washed twice with 20 mM Tris-HCl, 250 mM KCl, and 10 mM MgCl2 pH 7.4 and twice with the same buffer containing 10 mM of imidazole. The elution of the recombinant protein was obtained with 150 mM imidazole, pH 7.4. Imidazole was removed from the recombinant protein through overnight dialysis using a dialysis tubing membrane (Merck KGaA, Frankfurter Strasse 250 Darmstadt, Germany) and the protein was concentrated using a Centricon (Merck Millipore, 11 Avenida Norte Bis No. 513, San Salvador, El Salvador). The protein concentrations were determined using the Bradford assay (Bio-Rad Laboratories, Inc. Italy, Segrate) and the protein purity was monitored using SDS-PAGE.
The ATPase catalytic activity of recombinant human HSP70 was measured with a colorimetric assay using the malachite green reagent. Briefly, 6 µM of HSP70 protein was incubated for 30 min at 37 °C with 5 mM ATP in 20 mM Tris-HCl, 250 mM KCl, 10 mM MgCl2, and 0.02%TritonX-100, pH 7.4. The released phosphates were quantified by adding the malachite green reagent to an aliquot of this incubation and the absorbance was recorded at 620 nm using a Clariostar plate reader. The effects of thiazoles-based molecules on the ATPase catalytic activity were measured by adding (or not) the different molecules to the incubation (at 300 µM final concentration). To correct for non-enzymatic hydrolysis of ATP and for a specific absorbance of molecules, the absorbance signal of identically treated samples lacking the HSP70 protein was subtracted.

A further assay concerns the target SIRT6 (Homo sapiens, UniProt Q8N6T7). The experiment in a line: SIRT6 deacetylase and depalmitoylase activity (H3K9Ac / H3K9Palm peptides). In kind it is biochemical. The protocol: The synthesis of peptides H3K9Ac and H3K9Palm and the evaluation of the SIRT2 deacetylase activity and of the SIRT6 deacetylase and depalmitoylase activity were carried out as previously described. The IC50 of compound 1a was determined as in [43].

This note sets out measurements from article PMC10535842, “Novel Thiazole-Based SIRT2 Inhibitors Discovered via Molecular Modelling Studies and Enzymatic Assays” (Pharmaceuticals, 2023).

SMILES strings stand for the structures. “Also recorded” adds a separate entry of the source.

SIRT6, sequence (Q8N6T7 whole entry): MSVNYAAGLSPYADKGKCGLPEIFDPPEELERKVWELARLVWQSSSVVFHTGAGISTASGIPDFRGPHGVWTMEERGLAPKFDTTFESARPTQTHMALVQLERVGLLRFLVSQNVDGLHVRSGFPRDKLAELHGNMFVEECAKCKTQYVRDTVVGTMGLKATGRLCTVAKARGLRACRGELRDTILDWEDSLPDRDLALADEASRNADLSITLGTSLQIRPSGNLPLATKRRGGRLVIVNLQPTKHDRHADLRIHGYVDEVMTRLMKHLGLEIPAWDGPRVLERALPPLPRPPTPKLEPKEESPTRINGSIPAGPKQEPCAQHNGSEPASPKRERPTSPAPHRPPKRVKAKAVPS
T2 sequence (P0DMV8 whole entry): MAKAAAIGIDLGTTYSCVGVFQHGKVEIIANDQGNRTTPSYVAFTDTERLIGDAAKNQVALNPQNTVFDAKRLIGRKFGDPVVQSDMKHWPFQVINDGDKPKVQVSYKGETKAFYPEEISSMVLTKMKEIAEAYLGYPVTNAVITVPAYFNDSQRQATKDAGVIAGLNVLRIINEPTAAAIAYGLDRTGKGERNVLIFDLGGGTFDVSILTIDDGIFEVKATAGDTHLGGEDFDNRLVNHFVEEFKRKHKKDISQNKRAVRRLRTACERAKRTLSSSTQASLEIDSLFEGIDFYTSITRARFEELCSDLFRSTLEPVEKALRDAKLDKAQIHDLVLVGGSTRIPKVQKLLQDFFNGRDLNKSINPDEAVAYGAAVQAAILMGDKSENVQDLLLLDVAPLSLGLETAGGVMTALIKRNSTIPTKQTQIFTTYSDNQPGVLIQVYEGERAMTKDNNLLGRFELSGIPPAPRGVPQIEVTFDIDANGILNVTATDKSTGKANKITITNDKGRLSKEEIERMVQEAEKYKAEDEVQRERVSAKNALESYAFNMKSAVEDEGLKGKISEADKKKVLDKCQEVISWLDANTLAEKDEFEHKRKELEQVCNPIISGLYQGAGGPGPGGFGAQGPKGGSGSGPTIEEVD

A word on the inhibition: it is the percentage by which the read-out fell short of the control. Broadly, the IC50 is the concentration at which inhibition is half-maximal. For `CSc1cccc(Nc2nc(-c3nc4ccccc4s3)cs2)c1` [Compound 1a], the inhibition at 150 µM at recombinant SIRT2 (150 μM) was found to be 72 ± 8%. Besides, the IC50 at recombinant SIRT2 worked out at 45.1 ± 5 µM. Besides, the “α-tubulin acetylation (acetylated normalized to total α-tubulin, vs vehicle)” value in assay [1] was “higher levels of the acetylated SIRT2 substrate; also recorded: increased α-tubulin acetylation”. The inhibition at 300 µM at recombinant human HSP70 was determined as 49 ± 2%. For the same compound, on SIRT6, the “effect on SIRT6 deacetylase activity” value is “did not significantly affect” and the “selectivity over SIRT6” value is “selective over SIRT6”. The “effect on SIRT6 depalmitoylase activity” value at SIRT6 (palmitoylated peptide H3K9Palm) is “did not significantly affect”.
